Legend:
3T3-L1 adipocytes = assay: Phospholipidosis, HCS LipidTOX imaging in 3T3-L1 adipocytes; type: cell-based, mouse
Protocol: The 3T3-L1 mouse embryonic fibroblast cell line (ATCC CRL-11605) was cultured according to the standard protocol in Dulbecco’s Modified Eagle Medium (DMEM) supplemented with 10% bovine calf serum, 100 µg/mL streptomycin, and 100 IU/mL penicillin, at 37 °C in a humidified atmosphere containing 5% CO2. Cells were seeded at a density of 10,000 cells/well in collagen type I–coated (10 µg/mL) 96-well plates and allowed to attach for 24 h. Differentiation was initiated by replacing the medium with induction medium composed of DMEM, 0.5 mM 3-isobutyl-1-methylxanthine (IBMX), 1 µM dexamethasone, and 10% fetal bovine serum (FBS). After 48 h (differentiation day 2), the medium was replaced with DMEM supplemented with 10% FBS and 10 µg/mL human recombinant insulin. After an additional 24 h, the medium was replaced with DMEM supplemented with 10% bovine calf serum, 100 µg/mL streptomycin, and 100 IU/mL penicillin. The medium was refreshed every 24 h for 10 consecutive days to allow full differentiation into adipocytes.
Lipid accumulation and phospholipidosis were evaluated using the HCS LipidTOX Phospholipidosis and Steatosis Detection Kit (Thermo Fisher Scientific). Cells were cultured in black, clear-bottom 96-well plates and treated as described. Next, cells were fixed with 4% paraformaldehyde (15 min), washed with PBS, and stained with LipidTOX Green Neutral Lipid Stain (for steatosis) and LipidTOX Red Phospholipidosis Detection Reagent, prepared according to the manufacturer’s instructions. Nuclei were counterstained with Hoechst 33342 (2 µg/mL). Image acquisition and quantitative analysis were performed using High Content Screening (HCS) technology on the ImageXpress XLS system (Molecular Devices). Lipid droplet and phospholipid content were quantified using automated image analysis pipelines.

human TAAR1 = biological target: T1, human TAAR1 (Homo sapiens, UniProt Q96RJ0); assay: TAAR1 agonist activity, Hit Hunter cAMP assay; type: cell-based
T1 sequence (Q96RJ0 1-339): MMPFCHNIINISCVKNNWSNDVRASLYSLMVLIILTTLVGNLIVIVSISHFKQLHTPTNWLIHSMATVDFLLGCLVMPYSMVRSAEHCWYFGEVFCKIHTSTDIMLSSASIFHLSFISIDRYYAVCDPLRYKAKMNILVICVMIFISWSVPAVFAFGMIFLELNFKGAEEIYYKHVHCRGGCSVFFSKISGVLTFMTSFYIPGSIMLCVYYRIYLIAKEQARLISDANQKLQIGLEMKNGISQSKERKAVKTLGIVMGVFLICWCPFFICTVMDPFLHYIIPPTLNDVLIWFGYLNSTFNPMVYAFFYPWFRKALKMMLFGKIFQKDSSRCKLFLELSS
Protocol: The intrinsic activity of the TAAR1 receptor will be assessed according to the manufacturer’s protocol, using the Hit Hunter® cAMP assay by DiscoverX. This assay enables monitoring of GPCR activation in cells stably expressing TAAR1 by measuring changes in the level of the secondary messenger, cAMP. The cAMP Hunter cell lines were cultured from frozen stocks following standard procedures. Cells were plated in white-walled 384-well microplates at a total volume of 20 µL per well and incubated at 37 °C for the required period before analysis. To assess agonist activity, cells were exposed to the test compound to trigger a response. The culture medium was then removed and replaced with 15 µL of a 2:1 mixture of HBSS and 10 mM Hepes containing the cAMP XS+ antibody reagent. Sample stocks were diluted to prepare a 4× concentration in assay buffer. Subsequently, 5 µL of the 4× sample was added to each well, and the plates were incubated at either 37 °C or room temperature for 30 or 60 min. The vehicle was used at a concentration of 1%. After incubating the compounds for the required time, the assay signal was produced by adding 20 µL of the cAMP XS+ ED/CL lysis cocktail and incubating for one hour. This was followed by a three-hour incubation with 20 µL of the cAMP XS+EA reagent at room temperature. After signal development, the microplates were read using a PerkinElmer Envision Reader to detect chemiluminescence.

[1] = biological target: T2, 5-HT2C serotoninergic receptor (Homo sapiens, UniProt P28335); assay: 5-HT2C intrinsic activity, agonist mode (AequoScreen calcium mobilization); type: cell-based; settings: n.a. = no activity at 10–5 M
T2 sequence (P28335 33-458): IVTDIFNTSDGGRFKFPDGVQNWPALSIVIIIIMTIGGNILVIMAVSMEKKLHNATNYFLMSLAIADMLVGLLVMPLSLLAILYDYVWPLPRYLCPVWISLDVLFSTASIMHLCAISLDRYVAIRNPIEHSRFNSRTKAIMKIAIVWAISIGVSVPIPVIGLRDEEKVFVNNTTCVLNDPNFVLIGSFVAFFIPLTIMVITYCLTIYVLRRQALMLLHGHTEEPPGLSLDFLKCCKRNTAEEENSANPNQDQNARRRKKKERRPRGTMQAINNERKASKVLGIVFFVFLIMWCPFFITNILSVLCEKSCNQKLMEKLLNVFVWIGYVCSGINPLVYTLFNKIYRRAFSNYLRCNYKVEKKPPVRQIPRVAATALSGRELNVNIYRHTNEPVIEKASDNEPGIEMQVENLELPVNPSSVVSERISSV
Protocol: The determination of intrinsic activity will be performed in accordance with the manufacturer’s Aequoscreen methodology—Perkin Elmer.
The cell density in the 96-well format was 5000 cells per well. Cell preparation for the assay was performed according to the manufacturer’s instructions for AequoScreen (PerkinElmer, Waltham, MA, USA). […] The cells suspension was applied onto the ligands with the injectors of the POLARstar optima reader (BMG Labtech, Ortenberg, Germany). […] The concentration and dilution series having four replicates were prepared as instructed in the AequoScreen Starter Kit Manual (PerkinElmer, Waltham, MA, USA). The wells received cell injections along with either the standard agonist or the compounds being evaluated, while the POLARstar optima reader documented the emitted light over a duration of 20 s. In the antagonist evaluation, cells were administered (50 μL) into the assay plate alongside antagonist solutions (50 μL).

C57BL/6 mice = assay: Inhibition of gastric emptying (mouse model, phenol red); type: in vivo
Protocol: Fifty male C57BL/6 mice (22–27 g) were housed in standard cages while maintaining a 12:12-h light/dark cycle, with food and water available ad libitum. The experimental procedures were performed from 10:00 a.m. to 14:00 p.m.
The experiment was conducted according to Miyasaka et al. and Kotańska et al., with some minor modifications. Mice were subjected to a 20 h food deprivation and a 2 h water deprivation prior to testing. The animals received a vehicle (0.25 mL/mouse) alone or along with various compounds: JP-14 (10 mg/kg b. w.), RT (5 mg/kg body weight), metformin (100 mg/kg b. w.), or loperamide (reference compound; 10 mg/kg b. w.) via gastric gavage. Following a 45 min interval, phenol red (0.5 mL, 0.05% w/v) combined with glucose (1 g/kg body weight) was administered through the same route. Additionally, each group received an intraperitoneal injection of heparin (2500 U/mouse) 20 min prior to the collection of stomach contents. Seven mice treated with the vehicle were sacrificed immediately after the phenol red administration to serve as a standard control (representing 100% phenol red in the stomach at 0 min), establishing a baseline for maximum absorbance (100%). The leftover mice were sacrificed 30 min later. The stomachs were removed and homogenized using an OMNI homogenizer (OMNI International Company, Kennesaw, GA, USA), with 10 mL of 0.1 N NaOH. To 5 mL of homogenate, 0.5 mL of 20% w/v solution of trichloroacetic acid was incorporated to precipitate the proteins. Subsequently, the samples were centrifuged at 600× g for 15 min at a temperature of 20 °C, and 0.25 mL of supernatant was mixed with 1 mL of 0.5 N NaOH to achieve maximum color intensity. The concentration of phenol red was measured using spectrophotometry, with absorbance evaluated at a wavelength of 560 nm (MuLTISKAN.GO, Thermo Fisher Scientific Inc., Waltham, MA USA). For each mouse, the percentage of gastric emptying (GE %) was calculated using the following equation:(1) GE%=(Ac0−Ab)/(Ac0−Ac30)×100% where: Ac0 is the absorbance of the control gastric sample collected immediately after dye administration, and Ac30 is the absorbance of the control gastric sample collected 30 min after dye administration, i.e., Ac0–Ac30 = 100% gastric emptying.

Danio rerio larvae = assay: In vivo toxicity assay in zebrafish larvae (Casper and ABTL lines)
Protocol: To determine the toxicity of JP-14 to zebrafish larvae, 76 h post-fertilized (hpf) larvae ([…], ten per well) were kept in a 6-well plate and exposed to three concentrations of compound JP-14 diluted with embryonic medium (E3), whereas untreated larvae served as control (E3 alone). Each concentration was incubated in twelve wells. The mortality rate and disturbances were determined using a microscope (OPTA-TECH MN16, Warszawa, Poland) after 24 h of exposure.

[H]/N=C(\N)NN=Cc1c(Cl)cncc1Cl [JP-14, (E)-2-((3,5-Dichloropyridin-4-yl)Methylene)Hydrazine-1-Carboximidamide]
effect on phospholipidosis under TAAR1 blockade (3T3-L1 adipocytes; 10 µM + RTI-7470-44 (40 nM)): reversed | phospholipidosis (phospholipid accumulation) (3T3-L1 adipocytes; 10 µM, vs vehicle): significantly reduced | maximum cell stimulation (cAMP level) compared with the highest concentration of tyramine (human TAAR1; TAAR1-expressing cells): about twice as high | EC50 (human TAAR1; cAMP accumulation, n.a. = no activity at 10–5 M, read-out: TAAR1 Ago EC50): 11.3 ± 1.4 µM | 5-HT2C Ago EC50 [1]: did not exhibit any measurable agonistic or antagonistic activity | reduction of the effect of JP-14 on gastric emptying by RTI-7470-44 (C57BL/6 mice; JP-14 10 mg/kg + RTI-7470-44 5 mg/kg b.w.): about 40% | percentage inhibition of gastric emptying (C57BL/6 mice; JP-14 10 mg/kg b.w. combined with RTI-7470-44 5 mg/kg b.w.): about 25% | percentage inhibition of gastric emptying (C57BL/6 mice; intragastric, 10 mg/kg b.w.): about 66% | effect on pigmentation (Danio rerio larvae): no effect on pigmentation was observed | concentration not causing any visible disturbances (Danio rerio larvae; Casper and AB/TL lines, zebrafish (Danio rerio), 24 h): 10000 ng/mL

— PMC12563652 (International Journal of Molecular Sciences, 2025)
